This test relates to KRAS G12V dependent lung adenocarcinoma cell line, NCI-H441. Kind of test: Cellular pERK (Thr202/Tyr204) FRET/HTRF assay. The format is cell-based. As to conditions: Homo sapiens, NCI-H441, cellular pERK (Thr202/Tyr204) HTRF, NCI-H441 cells. An outline of the steps: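 Phospho-ERK1/2 (Thr202/Tyr204) quantified by two-antibody HTRF in lysed NCI-H441 cells. Cells seeded overnight, treated with test compounds for 1 hr at 37 °C against DMSO control, then lysed and detected at room temperature; IC50 obtained by curve fitting.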
A general note: Time-resolved FRET reads energy transfer from a long-lived donor to a nearby acceptor.

Structures are written as SMILES. A value given as a limit tells only on which side of the number the result lay.

In general, IC50 refers to the concentration at which inhibition is half-maximal. A high value points to lower potency. `[2H]C([2H])(Oc1nc(N2CCOC[C@@H]3[C@@H](F)[C@@H]32)c2cc(Cl)c(-c3cc(N)cc(C4CC4)c3C(F)(F)F)c(F)c2n1)[C@@]12CCCN1C[C@H](F)C2` [Example 184, 3-(6-chloro-8-fluoro-4-((1R,7R,8R)-8-fluoro-5-oxa-2-azabicyclo[5.1.0]octan-2-yl)-2-(((2R,7aS)-2-fluorotetrahydro-1H-pyrrolizin-7a(5H)-yl)methoxy-d2)quinazolin-7-yl)-5-cyclopropyl-4-(trifluoromethyl)aniline] yielded an IC50 of 500 to 10000 nM.

Regarding `[2H]C([2H])(Oc1nc(N2CCOC[C@@H]3[C@H]2[C@@]3([2H])F)c2cnc(-c3cc(N)cc4ccc(F)c(C#C)c34)c(F)c2n1)[C@@]12CCCN1C[C@H](F)C2` [Example 185, 5-ethynyl-6-fluoro-4-(8-fluoro-4-((1S,7S,8S)-8-fluoro-5-oxa-2-azabicyclo[5.1.0]octan-2-yl-8-d)-2-(((2R,7aS)-2-fluorotetrahydro-1H-pyrrolizin-7a(5H)-yl)methoxy-d2)pyrido[4,3-d]pyrimidin-7-yl)naphthalen-2-amine], the IC50 is below 50 nM.

Turning to `[2H]C([2H])(Oc1nc(N2CCOC[C@H]3[C@H](F)[C@H]32)c2cnc(-c3nc(N)cc(C)c3C(F)(F)F)c(F)c2n1)[C@@]12CCCN1C[C@H](F)C2` [Example 186, 6-(8-fluoro-4-((1S,7S,8S)-8-fluoro-5-oxa-2-azabicyclo[5.1.0]octan-2-yl)-2-(((2R,7aS)-2-fluorotetrahydro-1H-pyrrolizin-7a(5H)-yl)methoxy-d2)pyrido[4,3-d]pyrimidin-7-yl)-4-methyl-5-(trifluoromethyl)pyridin-2-amine], the IC50 was 50 to 500 nM.

`C#Cc1c(F)ccc2cc(N)cc(-c3ncc4c(N5CCOC[C@H]6[C@H](F)[C@H]65)nc(OC[C@@]56CCCN5CC5(CC5)C6)nc4c3F)c12` [Example 187, 4-(2-(((S)-dihydro-1′H,3′H-spiro[cyclopropane-1,2′-pyrrolizin]-7a′(5′H)-yl)methoxy)-8-fluoro-4-((1S,7S,8S)-8-fluoro-5-oxa-2-azabicyclo[5.1.0]octan-2-yl)pyrido[4,3-d]pyrimidin-7-yl)-5-ethynyl-6-fluoronaphthalen-2-amine] had an IC50 below 50 nM.

The compound `[2H]C([2H])(F)Oc1c(F)ccc2cc(N)cc(-c3ncc4c(N5CCOC[C@H]6[C@H](F)[C@H]65)nc(OC[C@@]56CCCN5C/C(=C\F)C6)nc4c3F)c12` [Example 188, 6-Fluoro-4-(8-fluoro-4-((1S,7S,8S)-8-fluoro-5-oxa-2-azabicyclo[5.1.0]octan-2-yl)-2-(((S,Z)-2-(fluoromethylene)tetrahydro-1H-pyrrolizin-7a(5H)-yl)methoxy)pyrido[4,3-d]pyrimidin-7-yl)-5-(fluoromethoxy-d2)naphthalen-2-amine] yielded an IC50 below 50 nM.

Compound `[2H]C([2H])(F)Oc1c(F)ccc2cc(N)cc(-c3ncc4c(N5CCOC[C@H]6[C@H](F)[C@H]65)nc(OC[C@@]56CCCN5CC(=C)C6)nc4c3F)c12` [Example 189, 6-fluoro-4-(8-fluoro-4-((1S,7S,8S)-8-fluoro-5-oxa-2-azabicyclo[5.1.0]octan-2-yl)-2-(((S)-2-methylenetetrahydro-1H-pyrrolizin-7a(5H)-yl)methoxy)pyrido[4,3-d]pyrimidin-7-yl)-5-(fluoromethoxy-d2)naphthalen-2-amine] came in with an IC50 below 50 nM.

Turning to `[2H]C([2H])(Oc1nc(N2CCOC[C@H]3[C@H](F)[C@H]32)c2cc(Cl)c(-c3cc(N)c(F)c(C)c3C(F)(F)F)c(F)c2n1)[C@@]12CCCN1C[C@H](F)C2` [Example 190, 5-(6-chloro-8-fluoro-4-((1S,7S,8S)-8-fluoro-5-oxa-2-azabicyclo[5.1.0]octan-2-yl)-2-(((2R,7aS)-2-fluorotetrahydro-1H-pyrrolizin-7a(5H)-yl)methoxy-d2)quinazolin-7-yl)-2-fluoro-3-methyl-4-(trifluoromethyl)aniline], the IC50 lay within 50 to 500 nM.

`[2H]C([2H])(Oc1nc(N2CCOC[C@@H]3[C@@H](F)[C@@H]32)c2cc(Cl)c(-c3cc(N)c(F)c(C)c3C(F)(F)F)c(F)c2n1)[C@@]12CCCN1C[C@H](F)C2` [Example 191, 5-(6-chloro-8-fluoro-4-((1R,7R,8R)-8-fluoro-5-oxa-2-azabicyclo[5.1.0]octan-2-yl)-2-(((2R,7aS)-2-fluorotetrahydro-1H-pyrrolizin-7a(5H)-yl)methoxy-d2)quinazolin-7-yl)-2-fluoro-3-methyl-4-(trifluoromethyl)aniline] registered a half-inhibitory concentration (IC50) of 500 to 10000 nM.

The compound `[2H]C([2H])([2H])Oc1c(F)cc(F)c2cc(N)cc(-c3ncc4c(N5CCOC[C@H]6[C@H](F)[C@H]65)nc(OC[C@@]56CCCN5CC(=C)C6)nc4c3F)c12` [Example 192, 6,8-difluoro-4-(8-fluoro-4-((1S,7S,8S)-8-fluoro-5-oxa-2-azabicyclo[5.1.0]octan-2-yl)-2-(((S)-2-methylenetetrahydro-1H-pyrrolizin-7a(5H)-yl)methoxy)pyrido[4,3-d]pyrimidin-7-yl)-5-(methoxy-d3)naphthalen-2-amine] yielded an IC50 below 50 nM.

For the compound `[2H]C1([2H])CC[C@@]2(C([2H])([2H])Oc3nc(N4CCOC[C@H]5[C@H](F)[C@H]54)c4cnc(-c5cc(N)cc6ccc(F)c(C#C)c56)c(F)c4n3)C[C@@]([2H])(F)CN12` [Example 193, 5-ethynyl-6-fluoro-4-(8-fluoro-4-((1S,7S,8S)-8-fluoro-5-oxa-2-azabicyclo[5.1.0]octan-2-yl)-2-(((2R,7aS)-2-fluorotetrahydro-1H-pyrrolizin-7a(5H)-yl-2,5,5-d3)methoxy-d2)pyrido[4,3-d]pyrimidin-7-yl)naphthalen-2-amine], the IC50 is below 50 nM.

`[2H]C([2H])(Oc1nc(N2CCC(=O)C[C@@H]3[C@H](F)[C@@H]32)c2cnc(-c3cc(N)cc4cc(F)c(F)c(C#C)c34)c(F)c2n1)[C@@]12CCCN1C[C@H](F)C2` [Example 194, (1R,7S,8S)-2-(7-(3-amino-8-ethynyl-6,7-difluoronaphthalen-1-yl)-8-fluoro-2-(((2R,7aS)-2-fluorotetrahydro-1H-pyrrolizin-7a(5H)-yl)methoxy-d2)pyrido[4,3-d]pyrimidin-4-yl)-8-fluoro-2-azabicyclo[5.1.0]octan-5-one]: the IC50 was in the range of 50 to 500 nM.

`[2H]C([2H])(Oc1nc(N2CCC(=O)C[C@H]3[C@H](F)[C@H]32)c2cnc(-c3cc(N)cc4cc(F)c(F)c(C#C)c34)c(F)c2n1)[C@@]12CCCN1C[C@H](F)C2` [Example 195, (1S,7R,8S)-2-(7-(3-amino-8-ethynyl-6,7-difluoronaphthalen-1-yl)-8-fluoro-2-(((2R,7aS)-2-fluorotetrahydro-1H-pyrrolizin-7a(5H)-yl)methoxy-d2)pyrido[4,3-d]pyrimidin-4-yl)-8-fluoro-2-azabicyclo[5.1.0]octan-5-one] came in with an IC50 below 50 nM.

In the case of `[2H]C([2H])(Oc1nc(N2CCC(=O)C[C@@H]3[C@@H](F)[C@@H]32)c2cnc(-c3cc(N)cc4cc(F)c(F)c(C#C)c34)c(F)c2n1)[C@@]12CCCN1C[C@H](F)C2` [Example 196, (1R,7S,8R)-2-(7-(3-amino-8-ethynyl-6,7-difluoronaphthalen-1-yl)-8-fluoro-2-(((2R,7aS)-2-fluorotetrahydro-1H-pyrrolizin-7a(5H)-yl)methoxy-d2)pyrido[4,3-d]pyrimidin-4-yl)-8-fluoro-2-azabicyclo[5.1.0]octan-5-one], the concentration for half-maximal inhibition (IC50) was below 50 nM.

Regarding `[2H]C([2H])(Oc1nc(N2CCC(=O)C[C@H]3[C@@H](F)[C@H]32)c2cnc(-c3cc(N)cc4cc(F)c(F)c(C#C)c34)c(F)c2n1)[C@@]12CCCN1C[C@H](F)C2` [Example 197, (1S,7R,8R)-2-(7-(3-amino-8-ethynyl-6,7-difluoronaphthalen-1-yl)-8-fluoro-2-(((2R,7aS)-2-fluorotetrahydro-1H-pyrrolizin-7a(5H)-yl)methoxy-d2)pyrido[4,3-d]pyrimidin-4-yl)-8-fluoro-2-azabicyclo[5.1.0]octan-5-one], the IC50 was 50 to 500 nM.

`C#Cc1c(F)ccc2cc(O)cc(-c3ncc4c(N5CCOC[C@H]6[C@H](F)[C@H]65)nc(OC[C@]56C[C@@H](F)CN5C[C@@H](CN)C6)nc4c3F)c12` [Example 198, 4-(2-(((2R,6R,7aS)-2-(aminomethyl)-6-fluorotetrahydro-1H-pyrrolizin-7a(5H)-yl)methoxy)-8-fluoro-4-((1S,7S,8S)-8-fluoro-5-oxa-2-azabicyclo[5.1.0]octan-2-yl)pyrido[4,3-d]pyrimidin-7-yl)-5-ethynyl-6-fluoronaphthalen-2-ol]: the IC50 is 50 to 500 nM.

For `[2H]C([2H])(Oc1nc(N2CCOC[C@H]3[C@H](F)[C@H]32)c2cnc(-c3cc(N)cc4ccc(F)c(C=C)c34)c(F)c2n1)[C@@]12CCCN1C[C@H](F)C2` [Example 199, 6-Fluoro-4-(8-fluoro-4-((1S,7S,8S)-8-fluoro-5-oxa-2-azabicyclo[5.1.0]octan-2-yl)-2-(((2R,7aS)-2-fluorotetrahydro-1H-pyrrolizin-7a(5H)-yl)methoxy-d2)pyrido[4,3-d]pyrimidin-7-yl)-5-vinylnaphthalen-2-amine], the IC50 is below 50 nM.

In turn, `[2H]C([2H])(F)Oc1c(F)ccc2cc(N)cc(-c3ncc4c(N5CCOC[C@H]6[C@H](F)[C@H]65)nc(OC[C@@]56CCCN5CC5(CC5)C6)nc4c3F)c12` [Example 200, 4-(2-(((S)-dihydro-1′H,3′H-spiro[cyclopropane-1,2′-pyrrolizin]-7a′(5′H)-yl)methoxy)-8-fluoro-4-((1S,7S,8S)-8-fluoro-5-oxa-2-azabicyclo[5.1.0]octan-2-yl)pyrido[4,3-d]pyrimidin-7-yl)-6-fluoro-5-(fluoromethoxy-d2)naphthalen-2-amine] gave an IC50 below 50 nM.
